In ChEMBL document CHEMBL4507256 (2021):

What was measured:
[1] = target: Tyrosine-protein kinase Srms (Homo sapiens) (UniProt Q9H3Y6); details: Compound concentration 1000.0 nM
[2] = system: Mast/stem cell growth factor receptor Kit (Homo sapiens), P10721 [D816V]; details: Compound concentration 1000.0 nM
[3] = target: Serine/threonine-protein kinase PLK4 (Homo sapiens) (UniProt O00444); details: Compound concentration 1000.0 nM
[4] = target: RAC-alpha serine/threonine-protein kinase (Homo sapiens) (UniProt P31749); details: Compound concentration 1000.0 nM
[5] = system: Mast/stem cell growth factor receptor Kit (Homo sapiens), P10721 [V559D,V654A]; details: Compound concentration 1000.0 nM
[6] = target: Serine/threonine-protein kinase ULK2 (Homo sapiens) (UniProt Q8IYT8); details: Compound concentration 1000.0 nM
[7] = target: Aurora kinase C (Homo sapiens) (UniProt Q9UQB9); details: Compound concentration 1000.0 nM
[8] = target: Serine/threonine-protein kinase ICK (Homo sapiens) (UniProt Q9UPZ9); details: Compound concentration 1000.0 nM
[9] = target: Cyclin-dependent kinase 5 (Homo sapiens) (UniProt Q00535); details: Compound concentration 1000.0 nM
[10] = target: Focal adhesion kinase 1 (Homo sapiens) (UniProt Q05397); details: Compound concentration 1000.0 nM
[11] = target: Cytoplasmic tyrosine-protein kinase BMX (Homo sapiens) (UniProt P51813); details: Compound concentration 1000.0 nM
[12] = target: Calcium/calmodulin-dependent protein kinase type II subunit delta (Homo sapiens) (UniProt Q13557); details: Compound concentration 1000.0 nM
[13] = target: Beta-3 adrenergic receptor (Homo sapiens) (UniProt P13945); details: Compound concentration 10.0 uM
[14] = target: Serine/threonine-protein kinase N2 (Homo sapiens) (UniProt Q16513); details: Compound concentration 1000.0 nM
[15] = target: High affinity nerve growth factor receptor (Homo sapiens) (UniProt P04629); details: Compound concentration 1000.0 nM
[16] = target: Calcium/calmodulin-dependent protein kinase type 1 (Homo sapiens) (UniProt Q14012); details: Compound concentration 1000.0 nM
[17] = target: cAMP-dependent protein kinase catalytic subunit PRKX (Homo sapiens) (UniProt P51817); details: Compound concentration 1000.0 nM
[18] = system: Proto-oncogene tyrosine-protein kinase receptor Ret (Homo sapiens), P07949 [M918T]; details: Compound concentration 1000.0 nM
[19] = target: Ephrin type-B receptor 6 (Homo sapiens) (UniProt O15197); details: Compound concentration 1000.0 nM
[20] = target: Serine/threonine-protein kinase 32B (Homo sapiens) (UniProt Q9NY57); details: Compound concentration 1000.0 nM
[21] = target: Dual specificity tyrosine-phosphorylation-regulated kinase 1B (Homo sapiens) (UniProt Q9Y463); details: Compound concentration 1000.0 nM
[22] = target: BMP-2-inducible protein kinase (Homo sapiens) (UniProt Q9NSY1); details: Compound concentration 1000.0 nM
[23] = target: Sodium-dependent serotonin transporter (Homo sapiens) (UniProt P31645); details: Compound concentration 10.0 uM
[24] = target: Tyrosine-protein kinase TXK (Homo sapiens) (UniProt P42681); details: Compound concentration 1000.0 nM
[25] = target: Activin receptor type-1-like (Homo sapiens) (UniProt P37023); details: Compound concentration 1000.0 nM
[26] = target: Cyclin-dependent kinase 4 (Homo sapiens) (UniProt P11802); details: Compound concentration 1000.0 nM
[27] = target: Serine/threonine-protein kinase SIK3 (Homo sapiens) (UniProt Q9Y2K2); details: Compound concentration 1000.0 nM
[28] = target: Ribosomal protein S6 kinase alpha-2 (Homo sapiens) (UniProt Q15349); details: Compound concentration 1000.0 nM
[29] = target: Receptor-type tyrosine-protein kinase FLT3 (Homo sapiens) (UniProt P36888); details: Compound concentration 1000.0 nM
[30] = system: Hepatocyte growth factor receptor (Homo sapiens), P08581 [M1250T]; details: Compound concentration 1000.0 nM
[31] = target: Interferon-induced, double-stranded RNA-activated protein kinase (Homo sapiens) (UniProt P19525); details: Compound concentration 1000.0 nM
[32] = target: Serine/threonine-protein kinase N1 (Homo sapiens) (UniProt Q16512); details: Compound concentration 1000.0 nM
[33] = target: Glycogen synthase kinase-3 beta (Homo sapiens) (UniProt P49841); details: Compound concentration 1000.0 nM
[34] = system: Epidermal growth factor receptor (Homo sapiens), P00533 [UNDEFINED MUTATION]; details: Compound concentration 1000.0 nM
[35] = system: Receptor-type tyrosine-protein kinase FLT3 (Homo sapiens), P36888 [N841I]; details: Compound concentration 1000.0 nM
[36] = target: Ribosomal protein S6 kinase alpha-3 (Homo sapiens) (UniProt P51812); details: Compound concentration 1000.0 nM
[37] = target: Macrophage-stimulating protein receptor (Homo sapiens) (UniProt Q04912); details: Compound concentration 1000.0 nM
[38] = system: Mast/stem cell growth factor receptor Kit (Homo sapiens), P10721 [D816H]; details: Compound concentration 1000.0 nM
[39] = target: Ephrin type-B receptor 4 (Homo sapiens) (UniProt P54760); details: Compound concentration 1000.0 nM
[40] = target: Serine/threonine-protein kinase 26 (Homo sapiens) (UniProt Q9P289); details: Compound concentration 1000.0 nM
[41] = target: Alpha-1D adrenergic receptor (Homo sapiens) (UniProt P25100); details: Compound concentration 10.0 uM
[42] = target: Mitogen-activated protein kinase kinase kinase kinase 5 (Homo sapiens) (UniProt Q9Y4K4); details: Compound concentration 1000.0 nM
[43] = system: Epidermal growth factor receptor (Homo sapiens), P00533 [UNDEFINED MUTATION]; details: Compound concentration 1000.0 nM; remark: listed apart in the source
[44] = target: Mitogen-activated protein kinase kinase kinase 1 (Homo sapiens) (UniProt Q13233); details: Compound concentration 1000.0 nM
[45] = target: Tyrosine-protein kinase receptor UFO (Homo sapiens) (UniProt P30530); details: Compound concentration 1000.0 nM

Chain of Epidermal growth factor receptor (Homo sapiens), P00533 [UNDEFINED MUTATION] (P00533 whole entry, looked up, stated change not applied): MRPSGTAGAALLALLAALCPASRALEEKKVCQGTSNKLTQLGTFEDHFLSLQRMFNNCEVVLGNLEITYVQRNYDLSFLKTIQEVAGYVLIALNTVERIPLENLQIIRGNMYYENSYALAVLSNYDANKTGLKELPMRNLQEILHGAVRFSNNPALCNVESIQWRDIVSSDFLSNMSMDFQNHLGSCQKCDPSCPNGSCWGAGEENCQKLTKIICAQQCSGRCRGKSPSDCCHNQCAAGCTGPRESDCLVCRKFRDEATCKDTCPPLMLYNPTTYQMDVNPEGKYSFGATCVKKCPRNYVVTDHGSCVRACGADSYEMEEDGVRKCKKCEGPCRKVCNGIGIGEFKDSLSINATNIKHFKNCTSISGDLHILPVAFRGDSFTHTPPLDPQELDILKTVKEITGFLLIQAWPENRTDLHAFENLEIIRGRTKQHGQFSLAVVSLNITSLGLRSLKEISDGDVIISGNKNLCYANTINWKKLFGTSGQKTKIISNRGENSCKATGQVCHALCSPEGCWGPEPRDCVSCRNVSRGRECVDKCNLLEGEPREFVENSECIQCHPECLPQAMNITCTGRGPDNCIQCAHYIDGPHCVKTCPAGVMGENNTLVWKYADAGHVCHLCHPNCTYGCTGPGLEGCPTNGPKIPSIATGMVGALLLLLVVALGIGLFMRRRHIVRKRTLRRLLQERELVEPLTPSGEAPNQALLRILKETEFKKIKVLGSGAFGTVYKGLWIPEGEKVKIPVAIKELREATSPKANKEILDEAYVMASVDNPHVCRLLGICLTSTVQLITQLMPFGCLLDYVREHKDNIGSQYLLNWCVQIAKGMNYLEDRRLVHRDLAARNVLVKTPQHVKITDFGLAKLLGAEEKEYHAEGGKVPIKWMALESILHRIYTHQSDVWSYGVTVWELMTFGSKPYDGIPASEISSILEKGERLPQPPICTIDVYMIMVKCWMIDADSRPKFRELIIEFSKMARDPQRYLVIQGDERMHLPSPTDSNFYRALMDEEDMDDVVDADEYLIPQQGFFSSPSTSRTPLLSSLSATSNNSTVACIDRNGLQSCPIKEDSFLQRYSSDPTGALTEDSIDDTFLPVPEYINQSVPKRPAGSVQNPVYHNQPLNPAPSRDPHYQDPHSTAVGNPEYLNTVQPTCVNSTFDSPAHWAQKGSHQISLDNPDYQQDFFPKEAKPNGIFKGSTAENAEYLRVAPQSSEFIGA
Chain of Cytoplasmic tyrosine-protein kinase BMX (Homo sapiens) (P51813 whole entry): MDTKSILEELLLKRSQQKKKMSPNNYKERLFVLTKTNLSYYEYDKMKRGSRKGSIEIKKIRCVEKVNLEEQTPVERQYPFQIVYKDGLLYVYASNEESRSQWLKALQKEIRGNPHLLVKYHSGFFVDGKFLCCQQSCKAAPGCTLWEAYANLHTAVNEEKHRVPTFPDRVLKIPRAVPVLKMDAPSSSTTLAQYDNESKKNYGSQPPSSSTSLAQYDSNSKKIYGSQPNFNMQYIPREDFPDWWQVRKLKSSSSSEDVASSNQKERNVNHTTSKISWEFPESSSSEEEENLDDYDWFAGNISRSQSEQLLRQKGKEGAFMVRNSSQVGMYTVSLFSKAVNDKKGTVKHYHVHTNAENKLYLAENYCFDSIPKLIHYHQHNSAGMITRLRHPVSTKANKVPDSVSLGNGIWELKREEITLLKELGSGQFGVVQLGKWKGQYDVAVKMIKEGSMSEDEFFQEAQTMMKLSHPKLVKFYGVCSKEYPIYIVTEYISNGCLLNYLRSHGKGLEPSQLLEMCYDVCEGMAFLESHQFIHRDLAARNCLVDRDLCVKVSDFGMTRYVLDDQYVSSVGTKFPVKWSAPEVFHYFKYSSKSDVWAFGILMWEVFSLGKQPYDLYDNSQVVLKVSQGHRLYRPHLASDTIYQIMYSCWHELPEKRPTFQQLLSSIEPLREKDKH
Chain of Glycogen synthase kinase-3 beta (Homo sapiens) (P49841 whole entry, looked up): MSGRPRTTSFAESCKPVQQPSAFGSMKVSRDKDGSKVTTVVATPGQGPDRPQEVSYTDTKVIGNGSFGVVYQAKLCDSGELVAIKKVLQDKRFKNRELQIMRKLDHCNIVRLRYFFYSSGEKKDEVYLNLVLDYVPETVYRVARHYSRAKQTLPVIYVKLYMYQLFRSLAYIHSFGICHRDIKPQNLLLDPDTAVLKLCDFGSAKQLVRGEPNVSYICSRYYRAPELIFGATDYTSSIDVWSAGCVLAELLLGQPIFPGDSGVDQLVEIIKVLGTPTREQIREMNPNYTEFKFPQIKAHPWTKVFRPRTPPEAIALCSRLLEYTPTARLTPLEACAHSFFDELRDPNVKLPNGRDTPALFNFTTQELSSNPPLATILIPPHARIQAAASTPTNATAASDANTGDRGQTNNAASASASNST
Chain of Aurora kinase C (Homo sapiens) (Q9UQB9 whole entry): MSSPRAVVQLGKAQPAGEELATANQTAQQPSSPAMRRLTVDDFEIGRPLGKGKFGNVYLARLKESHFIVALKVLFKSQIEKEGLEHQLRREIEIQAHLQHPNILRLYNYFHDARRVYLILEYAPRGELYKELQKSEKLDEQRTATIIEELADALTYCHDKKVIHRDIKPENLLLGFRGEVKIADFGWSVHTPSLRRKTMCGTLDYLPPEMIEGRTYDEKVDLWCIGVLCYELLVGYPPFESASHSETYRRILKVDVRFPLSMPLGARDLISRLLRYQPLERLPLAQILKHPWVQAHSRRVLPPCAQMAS
Chain of RAC-alpha serine/threonine-protein kinase (Homo sapiens) (P31749 whole entry): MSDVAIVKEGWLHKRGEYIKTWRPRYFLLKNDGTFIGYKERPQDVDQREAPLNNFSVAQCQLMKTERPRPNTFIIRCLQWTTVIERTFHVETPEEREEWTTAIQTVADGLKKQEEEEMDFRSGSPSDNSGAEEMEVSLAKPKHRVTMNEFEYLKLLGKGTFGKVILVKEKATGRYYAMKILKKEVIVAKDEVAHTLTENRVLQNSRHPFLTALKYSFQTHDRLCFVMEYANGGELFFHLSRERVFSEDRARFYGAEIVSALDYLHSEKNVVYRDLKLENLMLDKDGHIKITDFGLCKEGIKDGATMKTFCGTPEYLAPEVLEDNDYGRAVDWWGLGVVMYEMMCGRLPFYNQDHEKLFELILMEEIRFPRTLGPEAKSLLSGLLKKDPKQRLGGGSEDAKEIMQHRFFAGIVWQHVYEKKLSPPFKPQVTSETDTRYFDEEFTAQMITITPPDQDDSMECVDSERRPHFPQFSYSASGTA
Chain of Serine/threonine-protein kinase N2 (Homo sapiens) (Q16513 whole entry, looked up): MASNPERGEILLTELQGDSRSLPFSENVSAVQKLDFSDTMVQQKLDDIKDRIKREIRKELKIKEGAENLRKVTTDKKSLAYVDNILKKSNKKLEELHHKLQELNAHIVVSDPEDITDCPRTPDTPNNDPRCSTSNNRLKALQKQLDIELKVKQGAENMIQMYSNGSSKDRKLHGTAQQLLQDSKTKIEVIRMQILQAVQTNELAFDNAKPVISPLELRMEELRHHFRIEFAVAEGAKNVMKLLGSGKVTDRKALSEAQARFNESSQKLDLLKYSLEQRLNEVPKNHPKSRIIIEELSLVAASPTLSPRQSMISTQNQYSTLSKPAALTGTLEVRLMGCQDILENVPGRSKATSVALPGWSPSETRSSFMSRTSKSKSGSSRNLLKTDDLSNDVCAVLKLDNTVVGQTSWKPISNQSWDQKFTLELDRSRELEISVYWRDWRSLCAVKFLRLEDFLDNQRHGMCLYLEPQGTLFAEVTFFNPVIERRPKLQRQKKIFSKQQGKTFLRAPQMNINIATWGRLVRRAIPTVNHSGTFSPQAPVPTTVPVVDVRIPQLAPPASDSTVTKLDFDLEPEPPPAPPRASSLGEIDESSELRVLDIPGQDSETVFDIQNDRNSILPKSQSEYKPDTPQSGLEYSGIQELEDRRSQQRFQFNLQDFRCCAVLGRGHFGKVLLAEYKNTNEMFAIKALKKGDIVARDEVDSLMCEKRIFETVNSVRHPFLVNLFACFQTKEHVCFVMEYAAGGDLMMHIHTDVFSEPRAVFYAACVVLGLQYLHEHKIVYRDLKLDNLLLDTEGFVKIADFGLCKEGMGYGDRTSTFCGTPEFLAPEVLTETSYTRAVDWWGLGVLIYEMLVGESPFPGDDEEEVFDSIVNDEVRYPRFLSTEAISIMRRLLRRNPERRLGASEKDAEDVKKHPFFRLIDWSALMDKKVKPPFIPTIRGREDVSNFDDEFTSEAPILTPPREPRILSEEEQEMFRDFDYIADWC
Chain of Cyclin-dependent kinase 4 (Homo sapiens) (P11802 whole entry): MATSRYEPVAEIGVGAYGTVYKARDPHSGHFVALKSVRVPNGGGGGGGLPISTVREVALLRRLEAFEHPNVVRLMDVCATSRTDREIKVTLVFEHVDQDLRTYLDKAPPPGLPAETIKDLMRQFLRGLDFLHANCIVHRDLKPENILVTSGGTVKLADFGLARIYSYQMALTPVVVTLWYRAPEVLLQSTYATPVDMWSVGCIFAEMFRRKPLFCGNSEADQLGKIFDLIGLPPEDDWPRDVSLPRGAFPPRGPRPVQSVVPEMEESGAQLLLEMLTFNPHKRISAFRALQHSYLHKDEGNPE
Chain of Serine/threonine-protein kinase 26 (Homo sapiens) (Q9P289 2-416 limits assumed): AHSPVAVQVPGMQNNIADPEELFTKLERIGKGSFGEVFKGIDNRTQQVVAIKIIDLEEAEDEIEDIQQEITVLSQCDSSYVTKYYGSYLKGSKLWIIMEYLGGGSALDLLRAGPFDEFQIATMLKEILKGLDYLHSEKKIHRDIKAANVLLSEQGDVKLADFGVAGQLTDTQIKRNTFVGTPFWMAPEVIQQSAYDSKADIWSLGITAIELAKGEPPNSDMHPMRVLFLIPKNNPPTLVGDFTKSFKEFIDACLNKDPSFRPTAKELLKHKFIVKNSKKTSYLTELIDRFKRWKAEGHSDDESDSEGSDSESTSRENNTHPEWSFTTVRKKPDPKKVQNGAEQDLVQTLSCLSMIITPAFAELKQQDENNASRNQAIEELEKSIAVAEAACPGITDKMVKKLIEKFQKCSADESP

CCC(=N\O)/C(C)=C/c1ccc(F)c(C)c1 [A-226]
residual activity [1]: 100% | residual activity [2]: 94% | residual activity [3]: 100% | residual activity [4]: 98% | residual activity [5]: 100% | residual activity [6]: 100% | residual activity [7]: 100% | residual activity [8]: 97% | residual activity [9]: 86% | residual activity [10]: 100% | residual activity [11]: 99% | residual activity [12]: 100% | inhibition [13]: 11.1% | residual activity [14]: 100% | residual activity [15]: 100% | residual activity [16]: 86% | residual activity [17]: 94% | residual activity [18]: 92% | residual activity [19]: 100% | residual activity [20]: 99% | residual activity [21]: 100% | residual activity [22]: 100% | inhibition [23]: 8.28% | residual activity [24]: 73% | residual activity [25]: 98% | residual activity [26]: 100% | residual activity [27]: 89% | residual activity [28]: 100% | residual activity [29]: 100% | residual activity [30]: 88% | residual activity [31]: 100% | residual activity [32]: 100% | residual activity [33]: 100% | residual activity [34]: 71% | residual activity [35]: 49% | residual activity [36]: 100% | residual activity [37]: 100% | residual activity [38]: 100% | residual activity [39]: 100% | residual activity [40]: 100% | inhibition [41]: -3.74% | residual activity [42]: 100% | residual activity [43]: 100% | residual activity [44]: 100% | residual activity [45]: 100%

CCC(=N\O)/C(C)=C/c1ccc(F)cc1 [A-079]
residual activity [1]: 76% | residual activity [2]: 87% | residual activity [3]: 75% | residual activity [4]: 82% | residual activity [5]: 73% | residual activity [6]: 46% | residual activity [7]: 80% | residual activity [8]: 100% | residual activity [9]: 68% | residual activity [10]: 82% | residual activity [11]: 83% | residual activity [12]: 99% | inhibition [13]: -0.54% | residual activity [14]: 80% | residual activity [15]: 83% | residual activity [16]: 100% | residual activity [17]: 96% | residual activity [18]: 100% | residual activity [19]: 95% | residual activity [20]: 100% | residual activity [21]: 57% | residual activity [22]: 80% | inhibition [23]: 13% | residual activity [24]: 81% | residual activity [25]: 76% | residual activity [26]: 100% | residual activity [27]: 68% | residual activity [28]: 100% | residual activity [29]: 86% | residual activity [30]: 76% | residual activity [31]: 100% | residual activity [32]: 100% | residual activity [33]: 79% | residual activity [34]: 59% | residual activity [35]: 74% | residual activity [36]: 100% | residual activity [37]: 100% | residual activity [38]: 65% | residual activity [39]: 73% | residual activity [40]: 81% | inhibition [41]: -4.38% | residual activity [42]: 80% | residual activity [43]: 69% | residual activity [44]: 63% | residual activity [45]: 100%
